Source: patent publication US12151028B2, “Drug delivery systems comprising solid solutions of weakly basic drugs” (Adare Pharmaceuticals, Inc., priority 2006, dated 2024)
≈ marks a conversion by molar mass, not a printed value. Where a name gives a salt, the structure may show the parent alone. Read-outs that look alike come from different tables or passages of the source.

Columns and labels:
[1] = Intrinsic dissolution rate measurements; format: physicochemical; conditions: crystalline polymorphs (Polymorph I, Polymorph II)
Method: Intrinsic dissolution rates were determined for two different polymorphs of lercanidipine hydrochloride as well as amorphous materials (e.g., amorphous drug and 1:2 solid solutions of lercanidipine hydrochloride with Methocel E5 and Kollidon VA 64).

[2] = Turbidity measurements (transmittance of drug/polymer solutions in pH 6.0 buffer); format: physicochemical; conditions: buffer pH 6.0 containing Kollidon VA 64, Methocel E5, PEG 6000, cyclodextrin or Kollidon 14 PF; drug:polymer 1:2
Method: A concentrated solution (3 mL) of lercanidipine hydrochloride in acetone (0.5 mg/ml) was added to 200 mL of a buffer solution (pH 6.0) containing Kollidon VA 64, Methocel E5 (hypromellose), polyethylene glycol (PEG 6000), cyclodextrin or Kollidon 14 PF (polyvinyl pyrrolidone) at the ratio of 1:2 by weight with respect to the polymer.

Work on O=C1CN=C(c2ccccc2Cl)c2cc([N+](=O)[O-])ccc2N1 [Clonazepam, clonazepam] yielded a solubility (physchem; pH 2.84, aqueous buffer) of 0.029 mg/mL (≈ 91.9 µM), a solubility (physchem; pH 2.92, aqueous buffer) of 0.023 mg/mL (≈ 72.9 µM) and a solubility (physchem; pH 3, aqueous buffer) of 0.022 mg/mL (≈ 69.7 µM). For the same compound, the solubility (physchem; pH 3.32, aqueous buffer) was 0.021 mg/mL (≈ 66.5 µM), the solubility (physchem; pH 4.21, aqueous buffer) was 0.018 mg/mL (≈ 57 µM) and the solubility (physchem; pH 6.39, aqueous buffer) was 0.018 mg/mL (≈ 57 µM).

In the case of Cc1nccn1CC1CCc2c(c3ccccc3n2C)C1=O (centres unmarked) [Ondansetron Hydrochloride, ondansetron hydrochloride], the “Solubility of Ondansetron Hydrochloride in Fumaric Acid” value (“Solubility … in Fumaric Acid” for short) (fumaric acid 0.25 mg/mL, start pH 2.79, end pH 2.75) is reported as 26.2 mg/mL, the “Solubility … in Fumaric Acid” value (pH 2.13) is reported as 26.9 mg/mL and the “Solubility … in Fumaric Acid” value (pH 3.49) is reported as “about 26 mg/mL”.

With COC(=O)C1=C(C)NC(C)=C(C(=O)OC(C)(C)CN(C)CCC(c2ccccc2)c2ccccc2)C1c1cccc([N+](=O)[O-])c1 (centres unmarked) [lercanidipine hydrochloride] the “Intrinsic dissolution rate and extent of dissolution” value [1] was “poor dissolution rates” and the “Stability of drug solution against crystallization (turbidity)” value [2] was “improved stability”.
